Test results published in patent US20250144067A1, “PERSONALIZED STARVATION THERAPY FOR CANCER” (Faeth Therapeutics, Inc., priority 2021, published 2025).
Structures can show the parent of a compound that is named as a salt.

Tested on: NCI-H292 lung cancer cells
Assay: FDA drug screening, complete media vs cholesterol-free media with simvastatin (TABLE 2)
Assay type: cell-based, human
Conditions: not given

Compound | Cholesterol-free media + simvastatin (0.04 μM) | Complete Media | Difference
Cc1ccc(O)c([C@H](CCN(C(C)C)C(C)C)c2ccccc2)c1 [Tolterodine] | 1.169 | 0.8561 | −0.31
N[C@@H]1C[C@H]1c1ccccc1.N[C@@H]1C[C@H]1c1ccccc1.O=S(=O)(O)O [Tranylcypromine (hemisulfate)] | 0.8773 | 0.7026 | −0.17

Same assay, conditions: NCI-H292 cells, FDA drug library screen, cholesterol-free media with simvastatin 0.04 μM

Compound | Cholesterol-free media + simvastatin (0.04 μM)
Cc1cc(-n2c(=O)[nH]c(=O)n(C)c2=O)ccc1Oc1ccc(SC(F)(F)F)cc1 [Toltrazuril] | 0.9815
CC[C@@]1(O)C(=O)OCc2c1cc1n(c2=O)Cc2cc3c(CN(C)C)c(O)ccc3nc2-1 [Topotecan (Hydrochloride)] | 0.1355
CC(=O)Nc1cccc(-n2c(=O)n(C3CC3)c(=O)c3c(Nc4ccc(I)cc4F)n(C)c(=O)c(C)c32)c1 [Trametinib (DMSO solvate)] | 0.4848
O=c1n(CCCN2CCN(c3cccc(Cl)c3)CC2)nc2ccccn12 [Trazodone (hydrochloride)] | 0.8105

Same assay, conditions: NCI-H292 cells, FDA drug library screen, complete media

Compound | Complete Media
Cc1cc(-n2c(=O)[nH]c(=O)n(C)c2=O)ccc1Oc1ccc(SC(F)(F)F)cc1 [Toltrazuril] | 0.8466
CC[C@@]1(O)C(=O)OCc2c1cc1n(c2=O)Cc2cc3c(CN(C)C)c(O)ccc3nc2-1 [Topotecan (Hydrochloride)] | 0.04638
CC(=O)Nc1cccc(-n2c(=O)n(C3CC3)c(=O)c3c(Nc4ccc(I)cc4F)n(C)c(=O)c(C)c32)c1 [Trametinib (DMSO solvate)] | 0.3787
O=c1n(CCCN2CCN(c3cccc(Cl)c3)CC2)nc2ccccn12 [Trazodone (hydrochloride)] | 1.053

Same assay, conditions: NCI-H292 cells, FDA library drug in cholesterol-free media with simvastatin 0.04 μM

Compound | Cholesterol-free media + simvastatin (0.04 μM)
Cc1ccc(C(=O)c2ccc(CC(=O)O)n2C)cc1 [Tolmetin (sodium dihydrate)] | 1.295
Cc1ccc(C(=O)c2ccc(CC(=O)O)n2C)cc1 [Tolmetin] | 1.718
Cc1ccccc1C(=O)Nc1ccc(C(=O)N2CCCC(O)c3cc(Cl)ccc32)c(C)c1 (stereo not drawn) [Tolvaptan] | 2.102
CCCCC[C@H](O)CC[C@@H]1[C@H]2Cc3cccc(OCC(=O)O)c3C[C@H]2C[C@H]1O [Treprostinil] | 1.177
CC(C)(C)CC(=O)OCC(=O)[C@@]12OC(C)(C)O[C@@H]1C[C@H]1[C@@H]3CCC4=CC(=O)C=C[C@]4(C)[C@@]3(F)[C@@H](O)C[C@@]12C [Triamcinolone hexacetonide] | 1.053

Same assay, conditions: NCI-H292 cells, FDA library drug in complete media

Compound | Complete Media
Cc1ccc(C(=O)c2ccc(CC(=O)O)n2C)cc1 [Tolmetin (sodium dihydrate)] | 0.94
Cc1ccc(C(=O)c2ccc(CC(=O)O)n2C)cc1 [Tolmetin] | 1.392
Cc1ccccc1C(=O)Nc1ccc(C(=O)N2CCCC(O)c3cc(Cl)ccc32)c(C)c1 (stereo not drawn) [Tolvaptan] | 1.367
CCCCC[C@H](O)CC[C@@H]1[C@H]2Cc3cccc(OCC(=O)O)c3C[C@H]2C[C@H]1O [Treprostinil] | 0.8507
CC(C)(C)CC(=O)OCC(=O)[C@@]12OC(C)(C)O[C@@H]1C[C@H]1[C@@H]3CCC4=CC(=O)C=C[C@]4(C)[C@@]3(F)[C@@H](O)C[C@@]12C [Triamcinolone hexacetonide] | 0.6525

Same assay, conditions: NCI-H292 cells, cholesterol-free media with simvastatin 0.04 μM; FDA drug library screen (TABLE 2)

Compound | Cholesterol-free media + simvastatin (0.04 μM)
Cc1cccc(N2CC(CO)OC2=O)c1 (stereo not drawn) [Toloxatone] | 1.023
N#Cc1cc(-c2n[nH]c(-c3ccncc3)n2)ccn1 [Topiroxostat] | 1.544
Cc1cccc(Nc2ccncc2S(=O)(=O)NC(=O)NC(C)C)c1 [Torsemide] | 1.055

Same assay, conditions: NCI-H292 cells, complete media; FDA drug library screen (TABLE 2)

Compound | Complete Media
Cc1cccc(N2CC(CO)OC2=O)c1 (stereo not drawn) [Toloxatone] | 1.032
N#Cc1cc(-c2n[nH]c(-c3ccncc3)n2)ccn1 [Topiroxostat] | 1.543
Cc1cccc(Nc2ccncc2S(=O)(=O)NC(=O)NC(C)C)c1 [Torsemide] | 0.9909

Same assay, conditions: complete media minus cholesterol-free media + simvastatin (0.04 μM); >0 enhanced anti-cancer activity, about 0 neutral, <0 antagonist

Compound | Difference
Cc1cccc(N2CC(CO)OC2=O)c1 (stereo not drawn) [Toloxatone] | 0.01
N#Cc1cc(-c2n[nH]c(-c3ccncc3)n2)ccn1 [Topiroxostat] | 0.00
Cc1cccc(Nc2ccncc2S(=O)(=O)NC(=O)NC(C)C)c1 [Torsemide] | −0.06

Same assay, conditions: complete media minus cholesterol-free media + simvastatin; >0 enhanced anti-cancer activity, about 0 neutral, <0 antagonist

Compound | Difference
O=c1n(CCCN2CCN(c3cccc(Cl)c3)CC2)nc2ccccn12 [Trazodone (hydrochloride)] | 0.24

Same assay, conditions: complete media vs cholesterol-free media + simvastatin (0.04 μM); >0 enhanced anti-cancer activity, about 0 neutral, <0 antagonist

Compound | Difference
Cc1ccc(C(=O)c2ccc(CC(=O)O)n2C)cc1 [Tolmetin (sodium dihydrate)] | −0.35
Cc1ccc(C(=O)c2ccc(CC(=O)O)n2C)cc1 [Tolmetin] | −0.33
Cc1cc(-n2c(=O)[nH]c(=O)n(C)c2=O)ccc1Oc1ccc(SC(F)(F)F)cc1 [Toltrazuril] | −0.13
Cc1ccccc1C(=O)Nc1ccc(C(=O)N2CCCC(O)c3cc(Cl)ccc32)c(C)c1 (stereo not drawn) [Tolvaptan] | −0.73
CC[C@@]1(O)C(=O)OCc2c1cc1n(c2=O)Cc2cc3c(CN(C)C)c(O)ccc3nc2-1 [Topotecan (Hydrochloride)] | −0.09
CC(=O)Nc1cccc(-n2c(=O)n(C3CC3)c(=O)c3c(Nc4ccc(I)cc4F)n(C)c(=O)c(C)c32)c1 [Trametinib (DMSO solvate)] | −0.11
CCCCC[C@H](O)CC[C@@H]1[C@H]2Cc3cccc(OCC(=O)O)c3C[C@H]2C[C@H]1O [Treprostinil] | −0.33
CC(C)(C)CC(=O)OCC(=O)[C@@]12OC(C)(C)O[C@@H]1C[C@H]1[C@@H]3CCC4=CC(=O)C=C[C@]4(C)[C@@]3(F)[C@@H](O)C[C@@]12C [Triamcinolone hexacetonide] | −0.40

Tested on: NCI-H292 lung cancer cells
Assay: FDA drug screening, complete media vs cholesterol-free media without statin (TABLE 1)
Assay type: cell-based, human
Conditions: not given

Compound | Cholesterol-free | Complete | Difference
Cc1ccc(O)c([C@H](CCN(C(C)C)C(C)C)c2ccccc2)c1 [Tolterodine] | 0.9758 | 1.051 | 0.08
N[C@@H]1C[C@H]1c1ccccc1.N[C@@H]1C[C@H]1c1ccccc1.O=S(=O)(O)O [Tranylcypromine (hemisulfate)] | 1.175 | 0.8249 | −0.35

Same assay, conditions: Complete minus Cholesterol-free; >0 enhanced anti-cancer activity, about 0 neutral, <0 antagonist

Compound | Difference
Cc1cc(-n2c(=O)[nH]c(=O)n(C)c2=O)ccc1Oc1ccc(SC(F)(F)F)cc1 [Toltrazuril] | −0.07
Cc1ccccc1C(=O)Nc1ccc(C(=O)N2CCCC(O)c3cc(Cl)ccc32)c(C)c1 (stereo not drawn) [Tolvaptan] | −0.06
CC[C@@]1(O)C(=O)OCc2c1cc1n(c2=O)Cc2cc3c(CN(C)C)c(O)ccc3nc2-1 [Topotecan (Hydrochloride)] | −0.03
CC(=O)Nc1cccc(-n2c(=O)n(C3CC3)c(=O)c3c(Nc4ccc(I)cc4F)n(C)c(=O)c(C)c32)c1 [Trametinib (DMSO solvate)] | 0.00
CC(C)(C)CC(=O)OCC(=O)[C@@]12OC(C)(C)O[C@@H]1C[C@H]1[C@@H]3CCC4=CC(=O)C=C[C@]4(C)[C@@]3(F)[C@@H](O)C[C@@]12C [Triamcinolone hexacetonide] | −0.20

Same assay, conditions: Complete minus Cholesterol-free; greater than 0 enhanced anti-cancer activity, about 0 neutral, below 0 antagonist

Compound | Difference
Cc1cccc(Nc2ccncc2S(=O)(=O)NC(=O)NC(C)C)c1 [Torsemide] | −0.16

Same assay, conditions: Complete minus Cholesterol-free; greater than 0 enhanced anti-cancer activity, about 0 neutral, below 0 antagonists

Compound | Difference
Cc1cccc(N2CC(CO)OC2=O)c1 (stereo not drawn) [Toloxatone] | −0.48
CCCCC[C@H](O)CC[C@@H]1[C@H]2Cc3cccc(OCC(=O)O)c3C[C@H]2C[C@H]1O [Treprostinil] | −0.50

Same assay, conditions: NCI-H292 cells in cholesterol-free media without statin

Compound | Cholesterol-free
Cc1cccc(N2CC(CO)OC2=O)c1 (stereo not drawn) [Toloxatone] | 1.574
CCCCC[C@H](O)CC[C@@H]1[C@H]2Cc3cccc(OCC(=O)O)c3C[C@H]2C[C@H]1O [Treprostinil] | 1.45

Same assay, conditions: NCI-H292 cells in complete media

Compound | Complete
Cc1cccc(N2CC(CO)OC2=O)c1 (stereo not drawn) [Toloxatone] | 1.099
CCCCC[C@H](O)CC[C@@H]1[C@H]2Cc3cccc(OCC(=O)O)c3C[C@H]2C[C@H]1O [Treprostinil] | 0.9512

Same assay, conditions: NCI-H292 cells, FDA drug library screen, cholesterol-free media without statin

Compound | Cholesterol-free
Cc1cccc(Nc2ccncc2S(=O)(=O)NC(=O)NC(C)C)c1 [Torsemide] | 1.07

Same assay, conditions: NCI-H292 cells, FDA drug library screen, complete media

Compound | Complete
Cc1cccc(Nc2ccncc2S(=O)(=O)NC(=O)NC(C)C)c1 [Torsemide] | 0.914

Same assay, conditions: NCI-H292 cells, cholesterol-free media without statin

Compound | Cholesterol-free
Cc1ccc(C(=O)c2ccc(CC(=O)O)n2C)cc1 [Tolmetin] | 0.9799
O=c1n(CCCN2CCN(c3cccc(Cl)c3)CC2)nc2ccccn12 [Trazodone (hydrochloride)] | 1.4
CC(C)(C)CC(=O)OCC(=O)[C@@]12OC(C)(C)O[C@@H]1C[C@H]1[C@@H]3CCC4=CC(=O)C=C[C@]4(C)[C@@]3(F)[C@@H](O)C[C@@]12C [Triamcinolone hexacetonide] | 0.7329

Same assay, conditions: NCI-H292 cells, cholesterol-free media without statin, FDA drug library screen

Compound | Cholesterol-free
Cc1ccc(C(=O)c2ccc(CC(=O)O)n2C)cc1 [Tolmetin (sodium dihydrate)] | 0.7023
Cc1cc(-n2c(=O)[nH]c(=O)n(C)c2=O)ccc1Oc1ccc(SC(F)(F)F)cc1 [Toltrazuril] | 0.9718
Cc1ccccc1C(=O)Nc1ccc(C(=O)N2CCCC(O)c3cc(Cl)ccc32)c(C)c1 (stereo not drawn) [Tolvaptan] | 0.8732
N#Cc1cc(-c2n[nH]c(-c3ccncc3)n2)ccn1 [Topiroxostat] | 0.764
CC[C@@]1(O)C(=O)OCc2c1cc1n(c2=O)Cc2cc3c(CN(C)C)c(O)ccc3nc2-1 [Topotecan (Hydrochloride)] | 0.05524
CC(=O)Nc1cccc(-n2c(=O)n(C3CC3)c(=O)c3c(Nc4ccc(I)cc4F)n(C)c(=O)c(C)c32)c1 [Trametinib (DMSO solvate)] | 0.2835

Same assay, conditions: NCI-H292 cells, complete media

Compound | Complete
Cc1ccc(C(=O)c2ccc(CC(=O)O)n2C)cc1 [Tolmetin] | 0.6144
O=c1n(CCCN2CCN(c3cccc(Cl)c3)CC2)nc2ccccn12 [Trazodone (hydrochloride)] | 1.032
CC(C)(C)CC(=O)OCC(=O)[C@@]12OC(C)(C)O[C@@H]1C[C@H]1[C@@H]3CCC4=CC(=O)C=C[C@]4(C)[C@@]3(F)[C@@H](O)C[C@@]12C [Triamcinolone hexacetonide] | 0.5285

Same assay, conditions: NCI-H292 cells, complete media, FDA drug library screen

Compound | Complete
Cc1ccc(C(=O)c2ccc(CC(=O)O)n2C)cc1 [Tolmetin (sodium dihydrate)] | 1.262
Cc1cc(-n2c(=O)[nH]c(=O)n(C)c2=O)ccc1Oc1ccc(SC(F)(F)F)cc1 [Toltrazuril] | 0.9012
Cc1ccccc1C(=O)Nc1ccc(C(=O)N2CCCC(O)c3cc(Cl)ccc32)c(C)c1 (stereo not drawn) [Tolvaptan] | 0.8126
N#Cc1cc(-c2n[nH]c(-c3ccncc3)n2)ccn1 [Topiroxostat] | 1.603
CC[C@@]1(O)C(=O)OCc2c1cc1n(c2=O)Cc2cc3c(CN(C)C)c(O)ccc3nc2-1 [Topotecan (Hydrochloride)] | 0.02609
CC(=O)Nc1cccc(-n2c(=O)n(C3CC3)c(=O)c3c(Nc4ccc(I)cc4F)n(C)c(=O)c(C)c32)c1 [Trametinib (DMSO solvate)] | 0.2824

Same assay, conditions: complete vs cholesterol-free media; >0 enhanced anti-cancer activity, about 0 neutral, <0 antagonist

Compound | Difference
Cc1ccc(C(=O)c2ccc(CC(=O)O)n2C)cc1 [Tolmetin (sodium dihydrate)] | 0.56
N#Cc1cc(-c2n[nH]c(-c3ccncc3)n2)ccn1 [Topiroxostat] | 0.84

Same assay, conditions: complete vs cholesterol-free media; greater than 0 enhanced anti-cancer activity, about 0 neutral, below 0 antagonists

Compound | Difference
Cc1ccc(C(=O)c2ccc(CC(=O)O)n2C)cc1 [Tolmetin] | −0.37
O=c1n(CCCN2CCN(c3cccc(Cl)c3)CC2)nc2ccccn12 [Trazodone (hydrochloride)] | −0.37
